Assays:
Format in all cases: in vivo
mouse = assay: PAF (Platelet Activating Factor) lethality assay; conditions: for PAF lethality survival (%): Dose 50 mg/kg
Excerpt: (§1) The compounds of formulae (I) and (II) of this invention can be shown to inhibit lipoxygenase according to various testing methods. Such methods include the following: RPC (Rat Peritoneal Cavity resident cells) assay according to methods described in Jap. J. Inflammation 7:145-150 (1987), "Synthesis of leukotrienes by peritoneal macrophages"; PAF (Platelet Activating Factor) lethality assay according to methods described in Prostaglandisis 30(4):545-551 (1985); and y-RFE (yeast induced Rat Foot Edema) assay according to methods described in Biochem. Pharmacol. 36:547 (1987).
In the PAF lethality assay, the compound of Example 5, as shown in the Table above, gave a high (69%) survival percentage. The term "survival percentage" herein means the inhibitory efficacy to shock death of the mouse through lipoxygenase metabolites activated by dosing with PAF.

rat foot = assay: y-RFE (yeast induced Rat Foot Edema) assay; conditions: Dose 60 mg/kg; rat foot edema induced by yeast suspension
Excerpt: as §1
Furthermore, in the y-RFE assay, the compound of Example 5, as shown in the Table above, gave a high (69%) edema inhibitory percentage. The term "edema inhibitory percentage" herein means the inhibitory efficacy to the swelling of inflammatory edema of the rat foot induced by the injection of yeast suspension.

male ICR mice = assay: Acute toxicity after oral administration; conditions: 7 hours after oral administration at 600 mg/kg to male ICR mice
Experimental: Acute toxicity of the compound of Example 5 was investigated 7 hours after oral administration at 600 mg/kg to male ICR mice (Charles River Japan Inc., 5 weeks old, avg. body weight of 28 g).

| SMILES | PAF lethality survival (%) (mouse) | ED50 (mouse; Platelet, read-out: ED₅₀ value in the PAF lethality assay) [mg/kg] | y-RFE edema inhibitory (%) (rat foot) | Acute toxicity (male ICR mice) |
| --- | --- | --- | --- | --- |
| Cn1c(=O)[nH]c2c(c1=O)Nc1ccccc1S2 [Example 2, 1,5-Dihydro-3-methyl-2H-pyrimido[4,5-b][1,4]benzothiazine-2,4(3H)-dione] | 30 |  |  |  |
| Cn1c(=O)nc2sc3ccccc3nc-2c1=O [Example 5, 3-Methyl-2H-pyrimido[4,5-b][1,4]benzothiazine-2,4(3H)-dione] | 69 | 51 | 69 | did not show any acute toxic symptoms |
| O=c1[nH]c2c(c(=O)[nH]1)Nc1ccccc1S2 [Example 1, 1,5-Dihydro-2H-pyrimido[4,5-b][1,4]benzothiazine-2,4(3H)-dione] | 56 |  |  |  |
